Results: patent EP0452507A1, “MEDICINE COMPRISING TOCOPHERYL GLYCOSIDE AS ACTIVE INGREDIENT” (NIPPON HYPOX LABORATORIES INCORPORATED, priority 1989, dated 1991)

Assays:
Type in all cases: in vivo, rats
[1] = test system: antigen-adjuvant-induced inflammation; assay: antigen-adjuvant-induced inflammation, right hind paw swelling by volumetry; conditions: for inhibition activity against antigen-adjuvant-induced inflammations / average of the swelling ratios: 10 mg/kg intraperitoneally; for average of the swelling ratios: 0.5 hour after administration of antigen and adjuvant, versus Control group
Experimental: (§1) At first, five groups each consisting of five SD male rats weighing 180 to 220 g (total 25 rats) were prepared, and each rat was measured for a size of the subplantar region of the right hind paw. As an antigen to cause an antigen-adjuvant-induced inflammation, 0.2 mg/rat of egg-white albumin was used. Further, as an immune aid (adjuvant), a mixture consisting of 4 mg/rat of aluminum hydroxide and 0.1 ml/rat of pertussis vaccine was prepared.
One out of the five groups was used as Control group. A physiological saline solution of 10 % Nikkol (trade name, dissolving aid, supplied by Nikko Chemical Co., Ltd.) was administered intraperitoneally to each rat, and 0.5 hour after the administration of the physiological saline solution of 10 % Nikkol, the above antigen and adjuvant were administered intracutaneously into the subplantar region of the right hind paw. Then, 0.5, 1, 2, 4, 6, 12 and 24 hours after the administration of the antigen and adjuvant, the swelling on the subplantar region of the right hind paw of each rat was measured by volumetry. And, the average of swelling ratios of the group in every measurement was determined on the basis of the measurement values of the sizes of subplantar regions of the right hind paws of the rats obtained before the administration of the physiological saline solution of 10 % Nikkol.
One of the remaining four groups was used as Example group @. A physiological saline solution of 10 % Nikkol containing VIE-MAN was administered intraperitoneally into each rat of this group in such a dose that the amount of VIE-MAN was 10 mg/kg, and 0.5 hours after the administration of the physiological saline solution of 10 % Nikkol containing VIE-MAN, the above antigen and adjuvant were administered intracutaneously into the subplantar region of the right hind paw. Thereafter, the swelling on the subplantar region of the right hind paw of each rat was measured in the same manner as that for Control group, and the average of swelling ratios of the group in every measurement was determined.
(§2) The same procedure as that for Example group ⑧ was carried out except that a physiological saline solution of 10 % Nikkol containing hydrocortisone which was an anti-inflammatory preparation (immunosuppressive preparation) in place of the physiological saline solution of 10 % Nikkol containing VIE-MAN was administered intraperitoneally in such a dose that the amount of the hydrocortisone was 10 mg/kg.
as §2, with “diphenhydramine” for “hydrocortisone”, “antihistamine” for “anti-inflammatory”, “preparation” for “preparation (immunosuppressive preparation)”
as §2, with “containing indomethacin” for “containing hydrocortisone”, “was a nonsteroidal” for “was an”, “preparation (antipyretic analgesic antiphlogistic” for “preparation (immunosuppressive”, “the indomethacin” for “the hydrocortisone”
as §1, with “first, four” for “first, five”, “five male” for “five”, “SD” for “SD male”, “(total 20” for “(total 25”, “an antigen- adjuvant-induced” for “an antigen-adjuvant-induced”, “was prepared.” for “was used.”
One out of the four groups was used an Control group, and the procedure for Control group in Example 4 was repeated to determine the average of the swelling ratios as a group unit.

[2] = test system: stomach (mucosal ulcer in the glandular portion)
Experimental: 15 male SD rats weighing 180 to 220 g were used. These rats were fasted for 24 hours, and separated to three groups each consisting of 5 rats.
Then, one group was used as Control group. A physiological saline solution of 10 % Nikkol was administered intraperitoneally, and the rats were sacrificed with ether 16 hours after the administration. The stomach of each rat was removed, and after 10 ml of physiological saline was injected into the stomachs, the stomachs were fixed by immersing them in a 1 % formalin for 10 minutes. Each stomach was dissected along the greater curvatura, and the length (mm) of mucosal ulcer which occurred in the glandular portion was measured under an anatomical microscope (x 10). The average of the ulcer lengths of the five rats was taken as an ulcer index.
One out of the remaining two groups was used as Example group @. The procedure for Control group was repeated except that a physiological saline solution of 10 % Nikkol containing VIE-MAN in place of the physiological saline solution of 10 % Nikkol was administered intraperitoneally in such a dose that the amount of VIE-MAN was 300 mg/kg, and the ulcer index was determined.
(§3) The remaining one group was used as Comparative Example group ⓘ. The procedure for Example group 17 was repeated except that a physiological saline solution of 10 % Nikkol containing indomethacin, which was a nonsteroidal anti-inflammatory preparation (antipyretic analgesic antiphlogistic preparation), in place of the physiological saline solution of 10 % Nikkol was administered intraperitoneally in such a dose that the amount of the indomethacin was 20 mg/kg, and the ulcer index was determined.

adjuvant arthritis = adjuvant arthritis (Freund's complete adjuvant), right hind paw swelling by volumetry; conditions: Example 6, Fig. 5; for inhibition activity against acute inflammation (before the 14th day) and adjuvant arthritis (after 17th day): VIE-MAN 10 and 30 mg/kg/day, depending upon the dose, indomethacin 10 mg/kg/day, intraperitoneally
Experimental: 24 male SD rats weighing 180 to 220 g were used, and measured for a size of the subplantar region of the right hind paw. As a substance to cause adjuvant arthritis, 0.05 ml/rat of Freund's complete adjuvant [ADJUVANT COMPLETEFREUND, trade name, supplied by Difco] was used.
Then, the above Freund's complete adjuvant was administered intracutaneously into the subplantar region of right hind paw of each rat, and 24 hours after the administration, the swelling on the right hind paw of each rat was measured by volumetry to determine a swelling ratio. The above rats were separated into four groups each consisting of 6 rats such that the average swelling ratio of one group was nearly equal to that of another group.
Thereafter, one out of the four groups was used as Control group. A physiological saline solution of 10 % Nikkol was administered intraperitoneally to each rat of this group for the consecutive 22 days after the group separation, and the swelling on the right hind paw was measured by volumetry every day after the administration of the physiological saline solution of 10 % Nikkol. The average of swelling ratios as a group for each day was determined on the basis of the values of the sizes of the subplantar regions of the right hind paws obtained by the measurement prior to the administration of the Freund's complete adjuvant.
The procedure for Control group was repeated except that a physiological saline solution of 10 % Nikkol containing VIE-MAN in place of the physiological saline solution of 10 % Nikkol was administered intraperitoneally in such a dose that the amount of VIE-MAN was 10 mg/kg/day.
The procedure for Control group was repeated except that a physiological saline solution of 10 % Nikkol containing VIE-MAN in place of the physiological saline solution of 10 % Nikkol was administered intraperitoneally in such a dose that the amount of VIE-MAN was 30 mg/kg/day.
as §3, with “ⓕ.” for “ⓘ.”, “groups @ and @” for “group 17”, “indomethacin” for “indomethacin,”, “preparation)” for “preparation),”, “10 mg/kg/day,” for “20 mg/kg,”, “average of swelling ratios as a group” for “ulcer index”

Row | SMILES | inhibition activity against antigen-adjuvant-induced inflammations ([1]; Example 5, Fig. 4, 10 mg/kg) | average of the swelling ratios ([1]; Example 5, Fig. 4) | side effect on the digestive system ([2]; rat, in vivo) | inhibition activity against antigen-adjuvant-induced inflammations ([1]; Example 4, Fig. 3) | average of the swelling ratios ([1]; Example 4, Fig. 3) | average of the swelling ratios (adjuvant arthritis; 10 and 30 mg/kg/day intraperitoneally for 22 days, versus Control group) | inhibition activity against acute inflammation (before the 14th day) and adjuvant arthritis (after 17th day) (adjuvant arthritis) | mucosal ulcer (ulcer index) ([2]; rat, in vivo, ip, 300 mg/kg) | inhibition activity against antigen-adjuvant-induced inflammation compared with VIE-MAN ([1]; Example 4, Fig. 3, both 10 mg/kg intraperitoneally) | activity against acute inflammation and adjuvant arthritis compared with VIE-MAN (adjuvant arthritis; indomethacin 10 mg/kg/day intraperitoneally) | ulcer index ([2]; Example 8, Fig. 7, 20 mg/kg intraperitoneally, fasted rats, 16 hours after administration)
1 | Cc1c(C)c2c(c(C)c1OC1OC(CO)C(O)C(O)C1O)CCC(C)(CCCC(C)CCCC(C)CCCC(C)C)O2 (racemic) [VIE-GLU, dl-α-tocopheryl-,8-D-glucoside] | almost as superior as VIE-MAN | significantly lower than that of the swelling ratios of Control group | nearly similar results to that of the test on VIE-MAN |  |  |  |  |  |  |  | 
2 | Cc1c(C)c2c(c(C)c1OC1OC(CO)C(O)C(O)C1O)CCC(C)(CCCC(C)CCCC(C)CCCC(C)C)O2 (racemic) [VIE-MAN, dl-a-tocopheryl-a-D-mannoside] |  |  |  | excellent inhibition activity | significantly lower than that of the swelling ratios of Control group | significantly lower than that of the swelling ratios of Control group | excellent inhibition activity | no mucosal ulcer was observed |  |  | 
3 | COc1ccc2c(c1)c(CC(=O)O)c(C)n2C(=O)c1ccc(Cl)cc1 [indomethacin, reference compound] |  |  |  | significant inhibition activity at and after 2 hours |  |  | showed inhibitory activity against both acute inflammation and adjuvant arthritis |  | much lower than that of VIE-MAN | much lower than that of VIE-MAN | about 30 mm
